Measured values: ChEMBL document CHEMBL5113415, “Synthesis of 10,10'-bis(trifluoromethyl) marinopyrrole A derivatives and evaluation of their antiviral activities in vitro” (Eur J Med Chem, 2022)

Key:
Dengue virus = assay: Antiviral activity against DENV-NGC-1 infected in […] incubated for 7 days by CellTiter 96 luminescent cell viability assay; type: functional, organism-based; conditions: NGC-1, BHK, 168 h
Zika virus = assay: Antiviral activity against ZIKV-SMGC-1 infected in […] incubated for 7 days by CellTiter 96 luminescent cell viability assay; type: functional, organism-based; conditions: SMGC-1, BHK, 168 h
[1] = system: Japanese encephalitis virus; assay: Antiviral activity against JEV-SA14 infected in […] incubated for 7 days by CellTiter 96 luminescent cell viability assay; type: functional, organism-based; conditions: 168 h
Yellow fever virus = assay: Antiviral activity against YFV-17D infected in […] incubated for 7 days by CellTiter 96 luminescent cell viability assay; type: functional, organism-based; conditions: 168 h
Enterovirus A71 = assay: Antiviral activity against EV71 infected in human RD cells incubated for 3 days by CellTiter 96 luminescent cell viability assay; type: functional, organism-based; conditions: Enterovirus A, 71, RD, 72 h
Coxsackievirus A16 = assay: Antiviral activity against CA16 infected in human RD cells incubated for 3 days by CellTiter 96 luminescent cell viability assay; type: functional, organism-based; conditions: Enterovirus A, 72 h
[2] = Cytotoxicity against human RD cells infected with EV71 incubated for 3 days by CellTiter 96 luminescent cell viability assay; type: toxicity, cell-based; conditions: time 3 day
[3] = Cytotoxicity against human RD cells infected with CA16 incubated for 3 days by CellTiter 96 luminescent cell viability assay; type: toxicity, cell-based; conditions: time 3 day
[4] = Selectivity index, ratio of CC50 for human RD cells to IC50 for EV71 infected in human RD cells; type: toxicity, cell-based; conditions: read-out: Ratio CC50/IC50
[5] = Selectivity index, ratio of CC50 for human RD cells to IC50 for CA16 infected in human RD cells; type: toxicity, cell-based; conditions: read-out: Ratio CC50/IC50
[6] = Cytotoxicity against […] infected with DENV-NGC-1 incubated for 7 days by CellTiter 96 luminescent cell viability assay; type: toxicity, cell-based; conditions: time 7 day
[7] = Selectivity index, ratio of CC50 for […] to IC50 for ZIKV-SMGC-1 infected in […]; type: toxicity, cell-based; conditions: read-out: Ratio CC50/IC50
[8] = Selectivity index, ratio of CC50 for […] to IC50 for DENV-NGC infected in […]; type: toxicity, cell-based; conditions: read-out: Ratio CC50/IC50
[9] = Cytotoxicity against […] infected with JEV-SA14 incubated for 7 days by CellTiter 96 luminescent cell viability assay; type: toxicity, cell-based; conditions: time 7 day
[10] = Cytotoxicity against […] infected with YFV-17D incubated for 7 days by CellTiter 96 luminescent cell viability assay; type: toxicity, cell-based; conditions: time 7 day
Coxsackievirus = assay: Antiviral activity against CA6 infected in human RD cells incubated for 3 days by CellTiter 96 luminescent cell viability assay; type: functional, organism-based; conditions: A6, RD, 72 h
[11] = Cytotoxicity against human RD cells infected with CA6 incubated for 3 days by CellTiter 96 luminescent cell viability assay; type: toxicity, cell-based; conditions: time 3 day
[12] = Selectivity index, ratio of CC50 for […] to IC50 for JEV-SA14 infected in […]; type: toxicity, cell-based; conditions: read-out: Ratio CC50/IC50
[13] = Selectivity index, ratio of CC50 for […] to IC50 for YFV-17D infected in […]; type: toxicity, cell-based; conditions: read-out: Ratio CC50/IC50
[14] = Selectivity index, ratio of CC50 for human RD cells to IC50 for CA6 infected in human RD cells; type: toxicity, cell-based; conditions: read-out: Ratio CC50/IC50
[15] = Cytotoxicity against […] infected with ZIKV-SMGC-1 incubated for 7 days by CellTiter 96 luminescent cell viability assay; type: toxicity, cell-based; conditions: time 7 day

Structure (SMILES) | IC50 (Dengue virus) | IC50 (Zika virus) | IC50 [1] | IC50 (Yellow fever virus) | IC50 (Enterovirus A71) | IC50 (Coxsackievirus A16) | CC50 at 72 h [2] | CC50 at 72 h [3] | selectivity ratio [4] | selectivity ratio [5] | CC50 at 168 h [6] | selectivity ratio [7] | selectivity ratio [8] | CC50 at 168 h [9] | CC50 at 168 h [10] | selectivity ratio [12] | selectivity ratio [13] | CC50 at 168 h [15] | further results
O=C(c1ccc(C(F)(F)F)cc1O)c1[nH]c(Cl)c(Cl)c1-n1c(C(=O)c2ccc(C(F)(F)F)cc2O)cc(Cl)c1Cl | > 300 nM | > 300 nM | > 200000 nM | > 200000 nM | 60 nM | 10 nM | 120 nM | 250 nM | 1.96 | 24.6 |  |  |  |  |  |  |  |  | 
O=C(c1ccc(C(F)(F)F)cc1O)c1[nH]c(Cl)c(Cl)c1-n1c(C(=O)c2ccc(C(F)(F)F)cc2O)cc(Cl)c1SCc1cccnc1 | 240 nM | 280 nM |  |  | 270 nM | 100 nM | 570 nM | 860 nM | 2.1 | 8.61 | 320 nM | 1.14 | 1.33 |  |  |  |  |  | 
O=C(c1ccc(C(F)(F)F)cc1O)c1[nH]c(Cl)c(Cl)c1-n1c(C(=O)c2ccc(C(F)(F)F)cc2O)cc(Cl)c1Sc1ccccn1 |  |  | 210 nM | 50 nM |  | 10 nM |  | 230 nM |  | 22.8 |  |  |  | 230 nM | 230 nM | 1.1 | 4.6 |  | IC50 (Coxsackievirus): 190 nM; CC50 at 72 h [11]: 230 nM; selectivity ratio [14]: 1.2
CN(C)CCn1nnnc1Sc1c(Cl)cc(C(=O)c2ccc(C(F)(F)F)cc2O)n1-c1c(C(=O)c2ccc(C(F)(F)F)cc2O)[nH]c(Cl)c1Cl | 1870 nM | 1690 nM | 2110 nM | 1970 nM | 2470 nM |  | 3170 nM |  | 1.28 |  | 2820 nM | 1.67 | 1.51 | 4140 nM | 4140 nM | 1.96 | 2.1 | 2820 nM | 
O=C(c1ccc(C(F)(F)F)cc1O)c1[nH]c(Cl)c(Cl)c1-n1c(C(=O)c2ccc(C(F)(F)F)cc2O)cc(Cl)c1Sc1nnnn1CCO |  | 6410 nM |  | 8310 nM | 4770 nM | 2510 nM | 10800 nM | 15300 nM | 2.27 | 6.1 |  | 1.25 |  |  | 12200 nM |  | 1.47 | 8010 nM | 
O=C(c1ccc(C(F)(F)F)cc1O)c1[nH]c(Cl)c(Cl)c1-n1c(C(=O)c2ccc(C(F)(F)F)cc2O)cc(Cl)c1SCCc1ccccn1 |  | 150 nM | 620 nM | 570 nM | 50 nM | 20 nM | 270 nM | 350 nM | 5.4 | 17.5 |  | 4.07 |  | 610 nM | 610 nM | 0.98 | 1.07 | 25400 nM | 
O=C(c1ccc(C(F)(F)F)cc1O)c1[nH]c(Cl)c(Cl)c1-n1c(C(=O)c2ccc(C(F)(F)F)cc2O)cc(Cl)c1Sc1nc2cccnc2[nH]1 | 22800 nM | 31400 nM | 24400 nM | 19700 nM |  | 5900 nM |  | 19900 nM |  | 3.37 | 17100 nM | 0.54 | 0.75 | 19200 nM | 19300 nM | 0.79 | 0.98 | 1800 nM | 
O=C(c1ccc(C(F)(F)F)cc1O)c1[nH]c(Cl)c(Cl)c1-n1c(C(=O)c2ccc(C(F)(F)F)cc2O)cc(Cl)c1SCCCO | 230 nM | 100 nM | 230 nM | 200 nM |  |  |  |  |  |  | 1420 nM | 14.2 | 6.17 | 1420 nM | 1420 nM | 6.17 | 7.1 |  | IC50 (Coxsackievirus): 260 nM; CC50 at 72 h [11]: 1040 nM; selectivity ratio [14]: 4
Cc1nnc(Sc2c(Cl)cc(C(=O)c3ccc(C(F)(F)F)cc3O)n2-c2c(C(=O)c3ccc(C(F)(F)F)cc3O)[nH]c(Cl)c2Cl)s1 | 760 nM | 780 nM | 930 nM | 850 nM |  | 280 nM |  | 2640 nM |  | 9.43 | 440 nM | 0.57 | 0.58 | 1720 nM | 1720 nM | 1.85 | 2.02 | 440 nM | 
O=C(c1ccc(C(F)(F)F)cc1O)c1[nH]c(Cl)c(Cl)c1-n1c(C(=O)c2ccc(C(F)(F)F)cc2O)cc(Cl)c1Sc1nc2ccccc2[nH]1 | 21600 nM | 14500 nM |  | 23200 nM |  | 9130 nM |  | 45600 nM |  | 5 | 25300 nM | 1.75 | 1.17 |  | 30800 nM |  | 1.33 | 110 nM | 
O=C(c1ccc(C(F)(F)F)cc1O)c1[nH]c(Cl)c(Cl)c1-n1c(C(=O)c2ccc(C(F)(F)F)cc2O)cc(Cl)c1Sc1cnccn1 | 290 nM | 250 nM | 600 nM | 840 nM |  | 180 nM |  | 11000 nM |  | 60.9 | 1460 nM | 5.85 | 5.03 | 1210 nM | 1220 nM | 2.02 | 1.45 | 1460 nM | 
O=C(c1ccc(C(F)(F)F)cc1O)c1[nH]c(Cl)c(Cl)c1-n1c(C(=O)c2ccc(C(F)(F)F)cc2O)cc(Cl)c1Sc1nc[nH]n1 |  | 5670 nM | 29400 nM | 24300 nM |  |  |  |  |  |  |  | 2.44 |  | 18700 nM | 18600 nM | 0.64 | 0.77 | 13800 nM | 
O=C(c1ccc(C(F)(F)F)cc1O)c1[nH]c(Cl)c(Cl)c1-n1c(C(=O)c2ccc(C(F)(F)F)cc2O)cc(Cl)c1Sc1nc2ccccc2s1 | 1040 nM | 910 nM | 700 nM | 820 nM |  | 130 nM |  | 1460 nM |  | 11.3 | 110 nM | 0.12 | 0.11 | 1180 nM | 1170 nM | 1.68 | 1.43 | 17100 nM | 
O=C(c1ccc(C(F)(F)F)cc1O)c1[nH]c(Cl)c(Cl)c1-n1c(C(=O)c2ccc(C(F)(F)F)cc2O)cc(Cl)c1Sc1ncc[nH]1 | 1150 nM | 970 nM | 1260 nM | 1280 nM |  |  |  |  |  |  | 3750 nM | 3.87 | 3.26 | 3750 nM | 3750 nM | 2.98 | 2.93 | 3750 nM | 
O=C(c1ccc(C(F)(F)F)cc1O)c1[nH]c(Cl)c(Cl)c1-n1c(C(=O)c2ccc(C(F)(F)F)cc2O)cc(Cl)c1SCCO | 150 nM | 70 nM | 680 nM | 600 nM | 550 nM |  | 1570 nM |  | 2.85 |  | 500 nM | 7.13 | 3.34 | 1450 nM | 1450 nM | 2.13 | 2.41 | 1420 nM | 
O=C(c1ccc(C(F)(F)F)cc1O)c1[nH]c(Cl)c(Cl)c1-n1c(C(=O)c2ccc(C(F)(F)F)cc2O)cc(Cl)c1Sc1cccc[n+]1[O-] | 3680 nM |  |  | 3130 nM |  | 1070 nM |  | 8510 nM |  | 7.95 | 8060 nM |  | 2.19 |  | 8060 nM |  | 2.58 |  | 
O=C(c1ccc(C(F)(F)F)cc1O)c1[nH]c(Cl)c(Cl)c1-n1c(C(=O)c2ccc(C(F)(F)F)cc2O)cc(Cl)c1SCc1ncccn1 |  |  |  |  | 200 nM | 80 nM | 560 nM | 830 nM | 2.78 | 10.4 |  |  |  |  |  |  |  | 610 nM | 
[N-]=[N+]=NCCCSc1c(Cl)cc(C(=O)c2ccc(C(F)(F)F)cc2O)n1-c1c(C(=O)c2ccc(C(F)(F)F)cc2O)[nH]c(Cl)c1Cl |  | 90 nM | 90 nM |  |  |  |  |  |  |  |  |  |  | 310 nM |  | 3.44 |  | 500 nM | 
